This is an account of results in patent publication US12018229B2, “Organic compounds” (Givaudan SA, priority 2018, dated 2024).

The assay is described as follows: Determination of GC-odor threshold values (gas chromatograph with sniff port, panel of trained evaluators). The settings on record: absolute amount of compound delivered at the sniff port, identical conditions. The method, then:
According to standard procedures known to the person skilled in the art, threshold values for volatile perfumery compounds are determined on a gas chromatograph equipped with a sniff port by a panel of trained evaluators. The lowest concentration smelled by each panelist is recorded as the individual threshold value expressed in ng (absolute amount of compound delivered at the sniff port).
Under identical conditions the odor threshold value for the individual compounds was measured.
Turning to `CC1=CCOC(Cc2ccccc2)C1` (centres unmarked) [Example 3, 2-Benzyl-4-methyl-3,6-dihydro-2H-pyran], the odor threshold value is 0.03 ng.
As for `CC1=CCOC(CCCc2ccccc2)C1` (centres unmarked) [Example 1, 4-Methyl-2-(3-phenylpropyl)-3,6-dihydro-2H-pyran], the figure is 0.02 ng; as for `CC1=CC(C)OC(CCCc2ccccc2)C1` (centres unmarked) [Example 2, 4,6-Dimethyl-2-(3-phenylpropyl)-3,6-dihydro-2H-pyran], 0.03 ng.
In turn, `CC1=CCOC(CCCCc2ccccc2)C1` (centres unmarked) [Example 4, 4-Methyl-2-(4-phenylbutyl)-3,6-dihydro-2H-pyran, reference compound] came in with an odor threshold value of 63 ng.
As to `CC1=CCOC(CCc2ccccc2)C1` (centres unmarked) [Example 5, 4-Methyl-2-phenethyl-3,6-dihydro-2H-pyran, reference compound], the odor threshold value is reported as 45 ng.
